Legend:
CDK5/p25 = target: T1, CDK5/p25 (Homo sapiens, UniProt Q00535); assay: Kinase inhibition assay (ADP-Glo); assay type: biochemical; settings: 10 µM ATP
T1 construct: made in house; host or cells: bacteria
Description: HsCDK5/p25 (human, recombinant, expressed in bacteria) was assayed in buffer A, with 0.8 µg/µL of histone H1 as substrate.

HASPIN = target: T2, HASPIN (Homo sapiens, UniProt Q8TF76); assay: Kinase inhibition assay (ADP-Glo); assay type: biochemical; settings: 10 µM ATP
T2 construct: kinase domain, amino acids 470 to 798; made in house; host or cells: bacteria
T2 sequence (Q8TF76 470-798): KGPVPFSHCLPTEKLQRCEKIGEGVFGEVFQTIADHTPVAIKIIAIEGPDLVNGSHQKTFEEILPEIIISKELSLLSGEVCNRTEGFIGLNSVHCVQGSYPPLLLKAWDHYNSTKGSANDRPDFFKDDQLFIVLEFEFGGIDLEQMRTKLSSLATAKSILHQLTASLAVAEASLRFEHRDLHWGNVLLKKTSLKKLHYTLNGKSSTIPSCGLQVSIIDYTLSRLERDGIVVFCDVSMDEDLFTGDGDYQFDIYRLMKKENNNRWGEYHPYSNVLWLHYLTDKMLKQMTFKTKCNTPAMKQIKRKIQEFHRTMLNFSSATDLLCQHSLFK
Description: HsHASPIN (human, kinase domain, amino acids 470 to 798, recombinant, expressed in bacteria) was assayed in buffer A with 0.007 µg/µL of Histone H3 (1-21) peptide ([…]) as substrate;

CLK1 = target: T3, CLK1 (Mus musculus, UniProt P22518); assay: Kinase inhibition assay (ADP-Glo); assay type: biochemical; settings: 10 µM ATP
T3 construct: made in house; host or cells: bacteria
Description: MmCLK1 (from Mus musculus, recombinant, expressed in bacteria) was assayed in buffer A with 0.027μg/µL of the following peptide: GRSRSRSRSRSR as substrate.

GSK3 α/β = assay: Kinase inhibition assay (ADP-Glo); assay type: biochemical, Sus scrofa domesticus; settings: 10 µM ATP
Description: SscGSK-3α/β (Sus scrofa domesticus, glycogen synthase kinase-3, affinity purified from porcine brain) was assayed in buffer A with 0.010 µg/µL of GS-1 peptide, a GSK-3-selective substrate ([…]pEDEEE, “Sp” stands for phosphorylated serine).

PIM1 = target: T4, PIM1 (Homo sapiens, UniProt P11309); assay: Kinase inhibition assay (ADP-Glo); assay type: biochemical; settings: 10 µM ATP
T4 construct: made in house; host or cells: bacteria
Description: HsPIM1 (human proto-oncogene, recombinant, expressed in bacteria) was assayed in buffer B with 0.8 µg/µL of histone H1 (Sigma #H5505) as substrate.

CK1δ/ε = assay: Kinase inhibition assay (ADP-Glo); assay type: biochemical, Sus scrofa domesticus; settings: 10 µM ATP
Description: SscCK1δ/ε (Sus scrofa domesticus, casein kinase 1δ/ε, affinity purified from porcine brain) was assayed in buffer A, with 0.022 μg/μL of the following peptide: RRKHAAIGSpAYSITA (“Sp” stands for phosphorylated serine) as CK1-specific substrate.

CDK9/CyclinT = CDK9/CyclinT (Homo sapiens, UniProt P50750); assay: Kinase inhibition assay (ADP-Glo)
Description: The protein kinases studied were: CDK2/CyclinA, CDK5/p25, CDK9/CyclinT (cyclin-dependent kinases), HASPIN (haploid germ cell-specific nuclear protein kinase), PIM1 (PIM family kinase 1), CLK1 (cdc2-like kinase 1), DYRK1A (dual-specificity tyrosine phosphorylation regulated kinase), CK1δ/ε (casein kinase 1 isoforms), GSK3α/β (glycogen synthase kinase 3) and AURKB (aurora kinase B). Initially, all compounds were first tested at 10 μM. […] Compounds displaying more than 50% inhibition at 10 μM were next tested over a wide range of concentrations (usually 0.01–10 μM), and IC50 values were determined from the dose-response curves (Sigma-Plot).
Kinase activities were assayed in appropriate kinase buffer, with either protein or peptide as substrate in the presence of 10 µM ATP in a final volume of 6 µL using the ADP-Glo^TM assay kit (Promega, Madison, WI, USA, as described in Zegzouti et al. [66]). Controls were performed with appropriate dilutions of dimethylsulfoxide (solvent of the tested compounds).
The buffers used for kinase assays are the following: (A) 10 mM MgCl2, 1 mM EGTA, 1 mM DTT, 25 mM Tris-HCl pH 7.5, 50 µg/mL heparin; (B) 25 mM MOPS, pH 7.2, 12.5 mM -glycerolphosphate, 25 mM MgCl2, 5 mM EGTA, 2 mM EDTA, 0.25 mM DTT.

AURKB = target: T5, AURKB (Homo sapiens, UniProt Q96GD4); assay: Kinase inhibition assay (ADP-Glo); assay type: biochemical; settings: 10 µM ATP
T5 construct: purchased SignalChem A31-10G; host or cells: Sf9 insect cells (baculovirus)

NCI-H292 = assay: MTT cytotoxicity, 72 h; assay type: cell-based, human; settings: Homo sapiens, NCI-H292, 72 h of incubation
Description: (§1) The cytotoxicity assessment was performed against three human cancer cell lines in suspension (K562, HL-60 and MOLT-4) and four adhered (HEp-2, NCI-H292, HT-29 and MCF-7).
(§2) The cells were obtained from the Cell Bank of Rio de Janeiro and maintained in the Laboratory of Cell Culture of the Department of Antibiotics of the Federal University of Pernambuco. The lines K562 (myeloblastic leukaemia), HL-60 (promyelocytic leukemia) and MOLT-4 (lymphoblastic leukemia) were cultured in RPMI 1640 medium and the lines HEp-2 (larynx carcinoma), NCI-H292 (lung carcinoma), HT-29 (colon adenocarcinoma) and MCF-7 (breast adenocarcinoma) were cultured in DMEM medium, supplemented with 10% fetal bovine serum, 2 mM glutamine, 100 U/mL penicillin and 100 μg/mL streptomycin (Gibco™ Life Technologies), at 37 °C and 5% CO2.
(§3) The evaluation of the cytotoxicity of the compounds was performed by the method of 3-(4,5-dimethyl-2-thiazolyl)-2,5-diphenyl-2H-tetrazolium bromide (MTT) (Sigma Aldrich Co., St. Louis, MO, USA). To perform the assay the cells were seeded in 96-well plates at the following concentrations: HL-60 and K562 (0.3 × 10^6 cells/mL); MOLT-4 and PBMC (10^6 cells/mL); NCI-H292, HT-29, HEp-2 e MCF-7 (10^5 cells/mL). Briefly, the compounds previously dissolved in DMSO (dimethylsulfoxide, Vetec, São Paulo, Brazil), were diluted in medium and added to each well at the desired concentrations. For the calculation of the concentration that inhibits 50% of cell growth (IC50) the compounds were serially diluted to obtain the final concentrations between 0.19–25 μg/mL. Doxorubicin was used as the standard in the concentration range between (0.078–10 μg/mL). After 72 h of contact of the cells with the compounds, it was added to each well 25 μL of MTT solution (5 mg/mL). Plates were left for another 3 h in incubator at 37 °C and at the end of that period the supernatant was aspirated. To perform the reading, 100 μL of DMSO was added in each well for the dissolution of the formazan crystals. The amount of formazan was measured by reading the plate at 560 nm absorbance. The IC50 was calculated from the nonlinear regression in the Prisma 7.0 software (GraphPad, San Diego, CA, USA). Each sample was tested in triplicate in three independent experiments.

MOLT-4 = assay: MTT cytotoxicity, 72 h; assay type: cell-based, human; settings: Homo sapiens, MOLT-4, 72 h of incubation
Description: as §1, §2, §3

HL-60 = assay: MTT cytotoxicity, 72 h; assay type: cell-based, human; settings: for IC50: Homo sapiens, HL-60, MTT, 72 h of incubation; for selectivity index (SI = IC50 PBMC/ IC50 cancer cells): HL-60 versus PBMC
Description: as §1, §2, §3

HT-29 = assay: MTT cytotoxicity, 72 h; assay type: cell-based, human; settings: Homo sapiens, HT-29, 72 h of incubation
Description: as §1, §2, §3

MCF-7 = assay: MTT cytotoxicity, 72 h; assay type: cell-based, human; settings: Homo sapiens, MCF7, 72 h of incubation
Description: as §1, §2, §3

HEp-2 = assay: MTT cytotoxicity, 72 h; assay type: cell-based, human; settings: Homo sapiens, HEp-2, 72 h of incubation
Description: as §1, §2, §3

K562 = assay: MTT cytotoxicity, 72 h; assay type: cell-based, human; settings: Homo sapiens, K562, 72 h of incubation
Description: as §1, §2, §3

T3 sequence (P22518 whole entry): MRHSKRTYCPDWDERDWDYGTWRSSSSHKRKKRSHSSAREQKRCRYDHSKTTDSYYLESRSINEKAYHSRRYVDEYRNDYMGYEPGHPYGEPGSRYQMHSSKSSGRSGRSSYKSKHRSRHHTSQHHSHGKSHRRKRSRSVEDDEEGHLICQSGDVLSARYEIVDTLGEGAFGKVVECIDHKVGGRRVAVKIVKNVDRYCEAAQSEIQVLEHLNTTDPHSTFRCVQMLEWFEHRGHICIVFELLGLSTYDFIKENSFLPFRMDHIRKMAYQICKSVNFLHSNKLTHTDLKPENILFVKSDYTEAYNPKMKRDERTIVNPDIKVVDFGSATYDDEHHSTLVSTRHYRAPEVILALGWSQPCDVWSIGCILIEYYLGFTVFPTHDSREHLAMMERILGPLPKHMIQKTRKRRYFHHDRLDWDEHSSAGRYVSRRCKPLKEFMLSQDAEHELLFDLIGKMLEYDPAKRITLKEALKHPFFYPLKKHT
T1 sequence (Q00535 whole entry): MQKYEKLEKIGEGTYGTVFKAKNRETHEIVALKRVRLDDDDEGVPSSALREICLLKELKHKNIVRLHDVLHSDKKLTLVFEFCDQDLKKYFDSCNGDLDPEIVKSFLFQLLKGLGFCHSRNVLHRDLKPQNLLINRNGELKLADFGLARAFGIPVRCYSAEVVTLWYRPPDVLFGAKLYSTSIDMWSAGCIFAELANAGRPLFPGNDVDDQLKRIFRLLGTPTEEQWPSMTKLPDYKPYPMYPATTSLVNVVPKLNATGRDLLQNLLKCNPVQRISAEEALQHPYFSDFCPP
T1 sequence (Q15078 99-307 partner limits assumed): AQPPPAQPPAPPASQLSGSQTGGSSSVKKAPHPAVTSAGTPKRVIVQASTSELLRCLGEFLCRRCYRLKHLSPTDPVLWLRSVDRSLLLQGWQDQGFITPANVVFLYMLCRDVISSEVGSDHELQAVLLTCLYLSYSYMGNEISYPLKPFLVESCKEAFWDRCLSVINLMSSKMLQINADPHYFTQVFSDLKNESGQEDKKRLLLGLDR
T4 sequence (P11309 whole entry): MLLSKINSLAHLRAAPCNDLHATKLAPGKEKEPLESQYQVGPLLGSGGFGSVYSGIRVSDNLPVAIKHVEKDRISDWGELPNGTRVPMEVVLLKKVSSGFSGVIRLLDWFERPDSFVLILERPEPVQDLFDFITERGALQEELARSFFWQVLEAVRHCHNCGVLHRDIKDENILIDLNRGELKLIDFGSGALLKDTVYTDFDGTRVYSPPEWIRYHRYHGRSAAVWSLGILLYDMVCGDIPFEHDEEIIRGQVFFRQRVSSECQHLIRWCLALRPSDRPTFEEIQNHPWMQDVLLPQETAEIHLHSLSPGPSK
Chain of CDK9/CyclinT (P50750 whole entry): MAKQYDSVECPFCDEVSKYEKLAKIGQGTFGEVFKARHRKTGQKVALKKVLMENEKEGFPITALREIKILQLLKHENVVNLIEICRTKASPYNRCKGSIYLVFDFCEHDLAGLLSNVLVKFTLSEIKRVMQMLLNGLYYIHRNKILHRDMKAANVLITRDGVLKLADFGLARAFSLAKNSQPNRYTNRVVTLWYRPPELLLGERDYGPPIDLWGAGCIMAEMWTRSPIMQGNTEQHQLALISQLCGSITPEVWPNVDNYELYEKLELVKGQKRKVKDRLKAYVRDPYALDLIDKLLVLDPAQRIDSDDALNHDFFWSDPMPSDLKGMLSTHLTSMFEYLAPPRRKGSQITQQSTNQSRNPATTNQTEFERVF
Chain of CDK9/CyclinT (O60563 whole entry partner): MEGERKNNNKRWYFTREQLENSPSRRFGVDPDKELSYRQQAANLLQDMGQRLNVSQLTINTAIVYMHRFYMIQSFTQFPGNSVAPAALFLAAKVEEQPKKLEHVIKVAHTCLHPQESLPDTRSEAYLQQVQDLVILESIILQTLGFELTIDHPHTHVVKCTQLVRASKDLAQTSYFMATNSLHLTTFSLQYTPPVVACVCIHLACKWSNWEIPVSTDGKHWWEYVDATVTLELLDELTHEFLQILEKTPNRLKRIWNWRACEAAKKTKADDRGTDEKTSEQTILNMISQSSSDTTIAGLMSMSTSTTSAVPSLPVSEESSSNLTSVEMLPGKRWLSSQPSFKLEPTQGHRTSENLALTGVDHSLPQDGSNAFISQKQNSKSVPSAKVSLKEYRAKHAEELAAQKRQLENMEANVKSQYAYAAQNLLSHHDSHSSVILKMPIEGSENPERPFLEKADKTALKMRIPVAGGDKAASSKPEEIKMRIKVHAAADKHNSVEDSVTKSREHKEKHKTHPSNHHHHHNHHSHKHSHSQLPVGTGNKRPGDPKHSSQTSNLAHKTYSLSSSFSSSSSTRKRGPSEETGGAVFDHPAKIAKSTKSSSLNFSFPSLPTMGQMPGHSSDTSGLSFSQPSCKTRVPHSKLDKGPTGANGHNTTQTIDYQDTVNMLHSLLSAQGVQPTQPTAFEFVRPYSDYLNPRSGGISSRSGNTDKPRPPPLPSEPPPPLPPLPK
T5 sequence (Q96GD4 whole entry): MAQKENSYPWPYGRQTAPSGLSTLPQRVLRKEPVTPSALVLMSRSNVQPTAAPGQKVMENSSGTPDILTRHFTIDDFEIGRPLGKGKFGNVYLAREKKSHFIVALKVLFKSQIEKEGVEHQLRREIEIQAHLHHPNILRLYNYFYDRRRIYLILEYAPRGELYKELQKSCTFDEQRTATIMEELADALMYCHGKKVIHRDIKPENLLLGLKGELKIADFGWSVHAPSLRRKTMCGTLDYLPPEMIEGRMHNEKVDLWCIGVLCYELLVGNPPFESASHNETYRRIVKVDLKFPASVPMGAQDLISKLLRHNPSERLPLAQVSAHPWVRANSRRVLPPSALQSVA

| SMILES | IC50 (CDK5/p25) [µM] | IC50 (HASPIN) [µM] | IC50 (CLK1) [µM] | IC50 (GSK3 α/β) [µM] | IC50 (PIM1) [µM] | IC50 (CK1δ/ε) [µM] | IC50 (CDK9/CyclinT) [µM] | IC50 (AURKB) [µM] | IC50 (NCI-H292) [µM] | IC50 (MOLT-4) [µM] | IC50 (HL-60) [µM] | IC50 (HT-29) [µM] | IC50 (MCF-7) [µM] | IC50 (HEp-2) [µM] | IC50 (K562) [µM] | selectivity index (SI = IC50 PBMC/ IC50 cancer cells) (HL-60) |
| --- | --- | --- | --- | --- | --- | --- | --- | --- | --- | --- | --- | --- | --- | --- | --- | --- |
| Cc1ccc(C=NNC(N)=O)cc1 [Compound 3g, 4-Methylbenzaldehyde Semicarbazone] | > 10 | > 10 | > 10 | > 10 | > 10 | > 10 | > 10 | > 10 | > 100 | 56.4 ± 0.97 | 48.5 ± 1.63 | > 100 | > 100 | 24.3 ± 0.97 | 33.3 ± 0.71 |  |
| NC(=O)N/N=C/c1c(O)ccc2ccccc12 [Compound 3c, 2-Hydroxynaphthaldehyde Semicarbazone] | 0.35 | > 10 | 0.29 | > 10 | 0.52 | > 10 | 0.86 | 5.1 | 56.3 ± 3.05 | 41 ± 0.7 | 13.1 ± 0.62 | 40.6 ± 1.02 | 34 ± 1.06 | 37.1 ± 1.5 | 52.3 ± 1.15 | 6.2 |
| CCCCN(N=Cc1ccc([N+](=O)[O-])o1)C(N)=O [Compound 4a, 5-Nitro-2-(N^2-n-butyl)furfuraldehyde Semicarbazone] | > 10 | > 10 | > 10 | > 10 | > 10 | 0.76 | > 10 | > 10 | 37.9 ± 1.5 | 19.5 ± 0.62 | 11.4 ± 0.27 | 36.3 ± 0.97 | 33.6 ± 0.71 | 34.4 ± 0.88 | 24.2 ± 1.15 | 4.5 |

From PMC6958387, “Biological Evaluation of Arylsemicarbazone Derivatives as Potential Anticancer Agents” (Pharmaceuticals, 2019)
